Here are results for two molecules from patent publication US9938316B2, “Selective inhibitors of α2 isoform of Na,K-ATPase and use thereof for reduction of intra-ocular pressure and as cardiotonic agents” (priority 2013, dated 2018).

The structures appear in SMILES notation. Values joined by “and” are separate entries in the source; they are usually repeats but may differ in a detail not shown here. Equal entries are not always repeated.

For series [1], the system named is intra-ocular pressure (IOP) of rabbits. Put plainly: IB-MECA-induced ocular hypertension in rabbits. Format: in vivo, New Zealand white rabbits. The conditions noted are these: 1 mM applied after IB-MECA. On the procedure: IB-MECA induces acute ocular hypertension by a different and well-defined mechanism. Namely, IB-MECA is a selective agonist of the A3-adenosine receptor, and rises aqueous humour inflow and IOP by activating Cl channels of the NPE cells (18, 19). […] FIG. 8A depicts the effects of DMe (0.1-1 mM) applied prior to the IB-MECA, and a similar result was obtained for DGlyN (not shown). FIG. 8B depicts effects of digoxigenin, DGlyN and DMe (1 mM) applied after the IB-MECA.
New Zealand white rabbits (3-3.5 kg) about 1 year old, of either sex, were housed individually in separate cages in animal room conditions on a reversed, 12-hour dark/light cycle. For the experiments the animals were transferred to rabbit restrainers in a quiet and calm atmosphere (FIG. 1). […] Animal care and treatment were subject to the approval of the institutional committee for animal experiments, Weizmann Institute IACUC permission (no 04270911-2).
IOP (mm Hg) of rabbits was measured using a calibrated Pneumatonometer (Model 30, Reichert technologies, FIG. 1). A local anesthetic Oxybuprocaine HCl (0.4%, 25 μl) was applied to each cornea about a minute before IOP measurements. Two baseline IOP readings were taken before topical administration of the CG (or PBS as control) and after half an hour (Zero time). […] At zero time one drop of 4AP (40 mg/ml, 30 μl) or IB-MECA (1 μM, 30 μl) was administered to both eyes of each rabbit IOP measurements were made at different times as indicated in each experiment. In the experiments for which the IOP was elevated for several hours, 4AP was added every […] or IB-MECA every 2 hours. […] In all cases the figures depict the average effect on IOP (i.e for four or six eyes) compared to control ±SEM. […] Significance of differences from the control was calculated by the unpaired Students t-test (p values), p values <0.05 were considered significant. Corneal thickness (μm) was measured using an ultrasonic pachymeter (Sonogage pachometer, Cleveland, USA), before and during the experiment with CG and 4AP treatments. The values represent averages of three independent measurements for each eye.

Series [2] relates to Na,K-ATPase α2β1 isoform complex. Put plainly: biochemical. It counts as biochemical, human. As to conditions: for Selectivity ratio Ki α1/α2 ± S.E.: Kiα1β1/Kiα2β1. On the procedure: (§1) Methods for transformation, culture of P. pastoris clones, protein expression of Na,K-ATPase human isoforms (α1β1, α2β1, α3β1), membrane preparation, solubilization of membranes in DDM, and purification on BD-Talon beads have been described in detail (6-9, 11, 25). In initial experiments the three purified isoform complexes (0.3-0.5 mg/ml) were eluted from the BD-Talon beads in a solution containing Imidazole 170 mM, NaCl 100 mM; Tricine.HCl 20 mM pH 7.4; C12E8, 0.1 mg/ml; SOPS 0.07 mg/ml cholesterol 0.01 mg/ml, glycerol 25%. In later experiments the isoforms complexes were reconstituted with purified FXYD1 on the BD-Talon beads together as described in detail in (10, 11) prior to elution of α1β1FXYD1, α2β1FXYD1 and α3β1FXYD1 complexes. The proteins were stored at −80° C. Protein concentration was determined with BCA (B9643 Sigma).
(§2) Inhibition of Na,K-ATPase activity of the detergent-soluble α1β1, α2β1, and α3β1 complexes by CG's was determined as described (6) using either the αβ or αβFXYD1 complexes. […] The K0.5K was estimated by varying K concentration in a medium containing a fixed total K+choline chloride of 60 mM, and constant NaCl of 140 mM. Curves were fitted to the Hill function v=Vmax*[S]^n/([S]^n+K^n), where S is the K concentration, n is the Hill coefficient and K^n is K0.5K. For comparison of different curves the ratio v/Vmax for each curve was calculated and replotted. In experiments to assess inhibition of Na,K-ATPase activity by cardiac glycosides of the present invention, the percent inhibition VCG/V0 was calculated and Ki values were obtained by fitting the data to the function VCG/V0=Ki/([CG]+Ki)+ c. Inhibition was estimated in 3-8 separate experiments and average Ki values ±SEM were calculated. Significance of differences between Kiα1 and Kiα2 was calculated by the unpaired Student's t-test (p values). […] P values <0.05 were considered significant.

Series [3] concerns the target Na,K-ATPase α2β1 isoform complex (Homo sapiens, UniProt P50993). Put plainly: biochemical. Format: biochemical. As to conditions: Ki ± S.E. α2, Table 2; α2β1. On the procedure: as §1, §2
For series [4], the system named is cornea of rabbits. Put plainly: Pachymetry: corneal thickness and local toxicity after topical cardiac glycosides. Format: in vivo, New Zealand white rabbits. The conditions noted are these: for Corneal thickness: 0.5 mM; for Corneal thickness (in words): over 4 hours, Digoxin 1 mM, DGlyN 0.5 mM, DMe 0.5 mM, ouabain 1 mM; for Corneal thickness (in words) / Redness or local irritation in conjunctiva or cornea: after 4AP; for Redness or local irritation in conjunctiva or cornea: topical. The procedure: Thus, in this study, no change in corneal thickness was detected (Table 3), indicative of lack of local toxic effects. […] Similar results were obtained with CG's applied after IB-MECA.
IOP (mm Hg) of rabbits was measured using a calibrated Pneumatonometer (Model 30, Reichert technologies, FIG. 1). A local anesthetic Oxybuprocaine HCl (0.4%, 25 μl) was applied to each cornea about a minute before IOP measurements. Two baseline IOP readings were taken before topical administration of the CG (or PBS as control) and after half an hour (Zero time). […] At zero time one drop of 4AP (40 mg/ml, 30 μl) or IB-MECA (1 μM, 30 μl) was administered to both eyes of each rabbit IOP measurements were made at different times as indicated in each experiment. In the experiments for which the IOP was elevated for several hours, 4AP was added every 1.5 hours or IB-MECA every 2 hours. […] Each experiment was repeated two or three times with similar results. In all cases the figures depict the average effect on IOP (i.e for four or six eyes) compared to control ±SEM. Where error bars are not seen in the figures, the errors are smaller than the symbols used. Significance of differences from the control was calculated by the unpaired Students t-test (p values), p values <0.05 were considered significant. Corneal thickness (μm) was measured using an ultrasonic pachymeter (Sonogage pachometer, Cleveland, USA), before and during the experiment with CG and 4AP treatments. The values represent averages of three independent measurements for each eye.

The target in series [5] is Na,K-ATPase α1β1 isoform complex (Homo sapiens, UniProt P05023). Kind of series: biochemical. The conditions noted are these: Ki ± S.E. α1, Table 2; α1β1. The procedure: as §1, §2

As for `CC1CN(C)CCC(OC2C(O)CC(OC3C(O)CC(OC4CCC5(C)C(CCC6C5CC(O)C5(C)C(C7=CC(=O)OC7)CCC65O)C4)OC3C)OC2C)O1` (stereo not drawn) [DMe], the “Duration of the effect compared with digoxigenin” value in series [1] is “significantly greater”. For the same molecule, the “Effect on IB-MECA-induced ocular hypertension” value in series [1] was “almost the same as seen with 4AP”. Besides, the “Selectivity ratio Ki α1/α2 ± S.E.” value in series [2] turned out to be 6.47±0.71. Further, in series [2] (ratio of Ki, Table 6), the “Selectivity α1β1/α2/β1” value came to 6.7. Besides, the Ki (commonly the equilibrium dissociation constant of an inhibitor or competing ligand from its target) worked out at 15.6 ± 2.3 nM in series [3] and 101 ± 4.4 nM in series [5]. Also, the Corneal thickness in series [4] (left eye, 0 h) was 465 microns; in series [4] (left eye, 2 h), 440 microns; in series [4] (left eye, 4 h), 453 microns; in series [4] (right eye, 0 h) it was 507 microns; in series [4] (right eye, 2 h), 476 microns; in series [4] (right eye, 4 h), 498 microns. Further, the “Corneal thickness (in words)” value in series [4] is given as “not significantly affected”. In addition, in series [4], the “Redness or local irritation in conjunctiva or cornea” value was “neither redness nor local irritation were observed”.

Take `CC1CN(CC(N)=O)CCC(OC2C(O)CC(OC3C(O)CC(OC4CCC5(C)C(CCC6C5CC(O)C5(C)C(C7=CC(=O)OC7)CCC65O)C4)OC3C)OC2C)O1` (stereo not drawn) [DGlyN]: the “Duration of the effect compared with digoxigenin” value in series [1] was “significantly greater”. For the same molecule, the “Effect on IB-MECA-induced ocular hypertension” value in series [1] is listed as “almost the same as seen with 4AP”. Besides, in series [2], the “Selectivity ratio Ki α1/α2 ± S.E.” value is 7.45±0.46 and 7.45. For the same molecule, the Ki in series [3] came to 20.4 ± 1 nM; in series [5], 152 ± 5.5 nM. The Corneal thickness in series [4] (left eye, 0 h) stood at 498 microns; in series [4] (left eye, 2 h) it was 462 microns; in series [4] (left eye, 4 h), 455 microns; in series [4] (right eye, 0 h), 496 microns; in series [4] (right eye, 2 h) it was 476 microns; in series [4] (right eye, 4 h) it was 454 microns. Also, the “Corneal thickness (in words)” value in series [4] is on record as “not significantly affected”. Also, the “Redness or local irritation in conjunctiva or cornea” value in series [4] is reported as “neither redness nor local irritation were observed”.
